From ChEMBL document CHEMBL1255464, “Ethambutol optimal clinical dose and susceptibility breakpoint identification by use of a novel pharmacokinetic-pharmacodynamic model of disseminated intracellular Mycobacterium avium” (Antimicrob Agents Chemother, 2010)
Converted amounts (≈) assume the structure as drawn.

Experiments:
Mycobacterium avium [1] = assay: Antimycobacterial activity against Mycobacterium avium ATCC 700898 infected in human THP1 cells; format: functional, THP-1
Mycobacterium avium [2] = assay: Antimycobacterial activity against Mycobacterium avium ATCC 700898 infected in human THP1 cells assessed as extracellular bacterial killing; format: functional; details: ATCC 700898, THP-1
Mycobacterium avium [3] = assay: Antimycobacterial activity against Mycobacterium avium ATCC 700898 infected in human THP1 cells assessed as extracellular bacterial killing after 7 days; format: functional, organism-based; details: ATCC 700898, THP-1, 168 h
Mycobacterium avium [4] = assay: Antimycobacterial activity against Mycobacterium avium ATCC 700898 infected in human THP1 cells assessed as intracellular bacterial killing; format: functional; details: ATCC 700898, THP-1
Mycobacterium avium [5] = assay: Antimycobacterial activity against Mycobacterium avium ATCC 700898 infected in human THP1 cells assessed as intracellular bacterial killing after 7 days; format: functional, organism-based; details: ATCC 700898, THP-1, 168 h
THP-1 = assay: Cytotoxicity against human THP1 cells; format: cell-based

Q: How did the MIC (Mycobacterium avium [1]) turn out when `CC[C@@H](CO)NCCN[C@@H](CC)CO` [ETHAMBUTOL] was run?
A: 8 µg/mL (≈ 39.2 µM)

Q: And the Emax (Mycobacterium avium [2])?
A: 5.54 log10 CFU/ml

Q: And the EC50 (Mycobacterium avium [3])?
A: 5.38 µg/mL (≈ 26.3 µM)

Q: What about the Emax (Mycobacterium avium [4]) of the same molecule?
A: 0.67 log10 CFU/ml

Q: And the EC50 (Mycobacterium avium [5])?
A: 7.93 µg/mL (≈ 38.8 µM)

Q: What about the Activity (THP-1) of the same molecule?
A: Non-toxic
